# Data as given in PubChem BioAssay (NCI).
#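 A five-concentration, 48-hour dose response in 96-well plates underlies each endpoint, interpolated linearly between surrounding concentrations. At the GI50, growth is halved. TGI is the concentration that stops growth completely.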
# Key:
# Assay in all cases: growth of human tumour cells (NCI), 48 h
# [1] = tested on: OVCAR-3 ovarian
# [2] = tested on: OVCAR-8 ovarian
# [3] = tested on: MOLT-4 leukemia
# [4] = tested on: NCI/ADR-RES ovarian
# [5] = tested on: T-47D breast
# [6] = tested on: U251 CNS
# [7] = tested on: SN12C renal
# [8] = tested on: UACC-62 melanoma
# [9] = tested on: A549 NSCLC
# [10] = tested on: LOX IMVI melanoma
# [11] = tested on: HCC-2998 colon
# [12] = tested on: PC-3 prostate
# [13] = tested on: RPMI-8226 leukemia
# [14] = tested on: HT29 colon
# [15] = tested on: MALME-3M melanoma
# [16] = tested on: UO-31 renal
# [17] = tested on: UACC-257 melanoma
# [18] = tested on: MDA-MB-231 breast
# [19] = tested on: OVCAR-4 ovarian
# [20] = tested on: MCF7 breast
# [21] = tested on: SK-OV-3 ovarian
# [22] = tested on: NCI-H23 lung
# [23] = tested on: SK-MEL-5 melanoma
# [24] = tested on: HS 578T breast
# [25] = tested on: ACHN renal
# [26] = tested on: SNB-75 CNS
# [27] = tested on: IGROV1 ovarian
# [28] = tested on: BT-549 breast
# [29] = tested on: 786-0 renal
# [30] = tested on: NCI-H522 lung
# [31] = tested on: NCI-H226 lung
# [32] = tested on: HCT-116 colon
# [33] = tested on: OVCAR-5 ovarian
# [34] = tested on: DU-145 prostate
# [35] = tested on: SF-295 CNS
# [36] = tested on: NCI-H460 lung
# [37] = tested on: MDA-MB-435
# [38] = tested on: SK-MEL-28 melanoma
# [39] = tested on: SNB-19 CNS
# [40] = tested on: CAKI-1 renal
# [41] = tested on: HL-60(TB) leukemia
# [42] = tested on: SF-268 CNS
# [43] = tested on: SF-539 CNS
# [44] = tested on: KM12 colon
# [45] = tested on: SR leukemia
# [46] = tested on: COLO 205 colon
# [47] = tested on: CCRF-CEM leukemia
# [48] = tested on: RXF 393 renal
# [49] = tested on: TK-10 renal
# [50] = tested on: SW-620 colon
# [51] = tested on: HOP-62 NSCLC
# [52] = tested on: SK-MEL-2 melanoma
# [53] = tested on: HCT-15 colon
# [54] = tested on: HOP-92 NSCLC
# [55] = tested on: K-562 leukemia
smiles,measurement,setting,value
O=C(NC1CCN(Cc2ccccc2)CC1)c1cc(C(=O)NC2CCN(Cc3ccccc3)CC2)cc(C(=O)NC2CCN(Cc3ccccc3)CC2)c1,GI50,[1],10.7 µM
same,TGI,[1],44.6 µM
same,GI50,[2],12.7 µM
same,TGI,[2],43.4 µM
same,GI50,[3],1220 nM
same,TGI,[3],3.16 µM
same,GI50,[4],> 50 µM
same,TGI,[4],> 50 µM
same,GI50,[5],4.56 µM
same,TGI,[5],14.3 µM
same,GI50,[6],1520 nM
same,TGI,[6],5.66 µM
same,GI50,[7],15.6 µM
same,TGI,[7],> 50 µM
same,GI50,[8],7.71 µM
same,TGI,[8],15.2 µM
same,GI50,[9],6.68 µM
same,TGI,[9],15.4 µM
same,GI50,[10],1740 nM
same,TGI,[10],6.94 µM
same,GI50,[11],7.37 µM
same,TGI,[11],16.6 µM
same,GI50,[12],7.73 µM
same,TGI,[12],19.5 µM
same,GI50,[13],5.52 µM
same,TGI,[13],20.8 µM
same,GI50,[14],1300 nM
same,TGI,[14],4.17 µM
same,GI50,[15],1120 nM
same,TGI,[15],2520 nM
same,GI50,[16],> 50 µM
same,TGI,[16],> 50 µM
same,GI50,[17],8.08 µM
same,TGI,[17],16.5 µM
same,GI50,[18],2570 nM
same,TGI,[18],11.6 µM
same,GI50,[19],2430 nM
same,TGI,[19],10.2 µM
same,GI50,[20],946 nM
same,TGI,[20],1850 nM
same,GI50,[21],8.27 µM
same,TGI,[21],16.1 µM
same,GI50,[22],7.78 µM
same,TGI,[22],15.7 µM
same,GI50,[23],7.9 µM
same,TGI,[23],16.9 µM
same,GI50,[24],7.26 µM
same,TGI,[24],16.9 µM
same,GI50,[25],> 50 µM
same,TGI,[25],> 50 µM
same,GI50,[26],1480 nM
same,TGI,[26],7.42 µM
same,GI50,[27],25.2 µM
same,TGI,[27],> 50 µM
same,GI50,[28],2010 nM
same,TGI,[28],11.4 µM
same,GI50,[29],14.8 µM
same,TGI,[29],> 50 µM
same,GI50,[30],2030 nM
same,TGI,[30],10.1 µM
same,GI50,[31],14.7 µM
same,TGI,[31],> 50 µM
same,GI50,[32],3.51 µM
same,TGI,[32],14 µM
same,GI50,[33],6.83 µM
same,TGI,[33],13.7 µM
same,GI50,[34],18.2 µM
same,TGI,[34],> 50 µM
same,GI50,[35],6.76 µM
same,TGI,[35],15.6 µM
same,GI50,[36],8.07 µM
same,TGI,[36],16.9 µM
same,GI50,[37],923 nM
same,TGI,[37],1850 nM
same,GI50,[38],2810 nM
same,TGI,[38],9.5 µM
same,GI50,[39],8.61 µM
same,TGI,[39],17.6 µM
same,GI50,[40],> 50 µM
same,TGI,[40],> 50 µM
same,GI50,[41],15.1 µM
same,TGI,[41],> 50 µM
same,GI50,[42],8.25 µM
same,TGI,[42],18.8 µM
same,GI50,[43],865 nM
same,TGI,[43],1620 nM
same,GI50,[44],3.37 µM
same,TGI,[44],12.1 µM
same,GI50,[45],8.74 µM
same,TGI,[45],26.2 µM
same,GI50,[46],3.62 µM
same,TGI,[46],10.6 µM
same,GI50,[47],1750 nM
same,TGI,[47],5.17 µM
same,GI50,[48],2160 nM
same,TGI,[48],10.2 µM
same,GI50,[49],18.3 µM
same,TGI,[49],> 50 µM
same,GI50,[50],3.86 µM
same,TGI,[50],13 µM
same,GI50,[51],9.33 µM
same,TGI,[51],19.7 µM
same,GI50,[52],9.02 µM
same,TGI,[52],16.9 µM
same,GI50,[53],> 50 µM
same,TGI,[53],> 50 µM
same,GI50,[54],5.55 µM
same,TGI,[54],12.3 µM
same,GI50,[55],2000 nM
same,TGI,[55],> 50 µM
